How the values were obtained:
[1] = system: grass; experiment: Grass pot trial, dry weight and visual vigor under powdery mildew (Example 3); type: in vivo; settings: 8 WAT, 1 to 5 scale, powdery mildew infestation, in words
From the text: Six-inch (15-cm) diameter pots were filled to the rim with ProMix® BX potting soil and leveled off. Grass seed (0.5 g) was distributed evenly over the whole mix surface. The seed was watered in very gently. The grass was fertilized once 17 days later with Peters 20-10-20 at 100 ppm. The first cut was done on 11 days later; the grass was allowed to re-grow and cut 26 days later. Cutting was done at 2 in. (5 cm) height, using a round plastic cylinder that fit over the pot. The cut was made with hedge sheers and finished with scissors. Treatments were applied one day later using a volume of 20 ml per pot, followed with 117 ml of water/pot. The grass clippings were harvested an.d dried for dry weight determination 2 weeks after treatment (“WAT”) and 4 WAT. The grass was rated visually for vigor 8 WAT, using a 1 to 5 scale, before harvesting at the soil line. Dry weight and vigor data were subjected to analysis of variance (Fisher's Protected LSD, P=0.05).
The grass had germinated well within 30 days. Powdery mildew was noticed on some plants at 43 days after seeding, and became widespread in the plot. The powdery mildew coating appeared to grow more densely on the untreated plants. […] The invasion of the powdery mildew prevented the assessment of imidacloprid in the absence of pest pressure but it was serendipitously discovered that imidacloprid could have an effect on disease resistance in turf.

[2] = system: Sclerotinia homoeocarpa (Dollar Spot); experiment: Dollar Spot infection of bentgrass 'Crenshaw' turf flats (Example 1); type: in vivo; settings: for % Dollar Spot: imidacloprid alone 481 g/Ha
Description: Bentgrass var. ‘Crenshaw’ was seeded in 10 in.×12 in. (25 cm×30 cm) peat flats containing steam sterilized 80/20 greens mix. Flats were watered daily with an overhead misting system. Plots were fertilized with 200 ml of a 288 ppm 20-20-20 Regal Green fertilizer solution 23 days later. lmidacloprid (481 g/Ha) was applied according to the Merit® insecticide label the same day that fertilizer was applied. Fungicide treatments were applied 7 days later with a CO2 backpack sprayer at 2.0 gal./1000 ft^2 (i.e., 81.5 liters/1000 m^2) with a single 8003E nozzle. Two doses of each fungicide were tested. Plots were inoculated with Sclerotinia homoeocarpa (Dollar Spot) 2 days after the fungicides were applied by placing two 1-in. (2.5-cm) pieces of infested fescue leaves on each flat. Results are presented in Table 1 (where B+a number represents days after application of the herbicide component).

[3] = system: Curvularia; experiment: Disease infection of turf flats treated with Merit 75 WP (Example 5); type: in vivo; settings: for percent infection (Curvularia): Kentucky bluegrass
Description: Four sets of twenty-four 10 in.×12 in. (25 cm×30 cm) flats were filled with sterilized sand and each set was seeded with either Kentucky bluegrass, Crenshaw L-93 bentgrass, bermudagrass, or K-31 tall fescue. Each flat was fertilized weekly with 20-20-20 soluble fertilizer at 0.144 g per 200 ml of water (equivalent to 4 lbs/year/acre). The trial was replicated once.
Twelve flats in each set were treated with Merit 75 WP equivalent to 8.6 oz/acre per 80 gal. (ca. […] per 100 liter) of water (spray application) for each turf variety and twelve flats remained untreated. Replicate 1 was treated 25 days after seeding and Replicate 2 was treated 28 days after seeding. Disease outbreaks began approximately the time of treatment. Assessments of the infection percentage were done at 13 and 25 days after treatment. […] The percent disease infection at the first and second assessments in the first trial was 22 and 26%, respectively, while the percent infection in the imidacloprid treated flats was 1 and 8% at the first and second assessment dates, respectively. In the second trial, disease pressure was lower, but the untreated flats had 3 and 8% infection at the first and second assessment dates, whereas the imidacloprid treated flats had 0.5 and 2% at the two assessment dates.

[4] = system: Curvularia; experiment: Curvularia on bermudagrass 'TifEagle', golf course field trial (Example 8); type: in vivo; settings: for % turf infected with disease (Curvularia): imidacloprid 0.4 lb/A single application, fungicide programs every two weeks
Description: Established bermudagrass (cv. ‘TifEagle’) on a golf course in Florida was treated in late spring with imidacloprid at 0.4 lb/A (i.e., 0.45 kg/Ha). For comparison, two different fungicide spray programs were applied to nearby plots. The two fungicide spray programs were (1) fosetyl+iprodione at (4 oz.+4 oz.) per 1000 ft^2 [(1.2 g+1.2 g) per m^2] alternated with fosetyl+trifloxystrobin at (4 oz.+0.15 oz.) per 1000 ft^2 [(1.2 g+46 mg) per m^2], and (2) fosetyl+iprodione at (4 oz.+4 oz.) per 1000 ft^2 [(1.2 g+1.2 g) per m^2] alternated with flutolanil at 2.2 oz product/1000 ft^2 (0.67 g) per m^2). The fungicide applications were made every two weeks. In comparison, the imidacloprid-treated plots received only a single application of active ingredient.
At the time of treatment, Curvularia disease was just beginning to develop (i.e., the mean percent infection in all plots was 3% of the turf cover). The spread of the disease was monitored weekly for twelve weeks, and turf quality, measured on a 0 to 9 scale (0=dead turf and 9=perfect quality). […] Effects of the various treatments on disease incidence are described in Table 6 (where A+a number represents days after application of imidacloprid). Data are expressed as % turf infected with disease.

[5] = system: Rhizoctonia solani; experiment: Brown Patch infection of bentgrass 'Crenshaw' turf flats (Example 6); type: in vivo; settings: for % Brown Patch infection: imidacloprid alone 481 g/Ha
Description: Bentgrass var. ‘Crenshaw’ was seeded in 10 in.×12 in. (25 cm×30 cm) peat flats containing steam sterilized 80/20 greens mix. Flats were watered daily with an overhead misting system. Plots were fertilized on 11/20 with 200 ml of a 288 ppm 20-20-20 Regal Green fertilizer solution. Treatments were applied with a CO2 backpack sprayer at 2.0 gal./1000 ft^2 (i.e., 81.5 liters/1000 m^2) and a single 8003E nozzle. Imidacloprid was applied on 16 days after seeding and fungicides applied 21 days after seeding and 35 days after seeding. Plots were inoculated 18 days after seeding with 0.25 g of fescue seed infected with Rhizoctonia solani. Results are presented in Table 4 (where B+a number represents days after application of the herbicide component).

[6] = system: powdery mildew; experiment: Greenhouse trial, powdery mildew severity on Kentucky bluegrass (Example 4); type: in vivo, Erysiphe graminis; settings: for Powdery mildew rating: 1 = best (no disease) to 9 = dead
[7] = system: Pythium aphanedermatum; experiment: Pythium infection of bentgrass sod flats (Example 7); type: in vivo; settings: for % Pythium: imidacloprid alone 481 g/Ha
Description: Bentgrass sod var. ‘Crenshaw’ was cut and placed in 6″×7″ (15 cm×17.5 cm) peat flats containing steam-sterilized 80/20 greens mix during the spring. To create conditions favorable for the development of Pythium, the flats were watered daily with an overhead misting system to provide conditions favorable to the development on disease. In addition, plots were fertilized weekly with 100 ml of a 244 ppm 20-20-20 Regal Green fertilizer solution. Imidacloprid at 481 g/Ha was applied four days after being placed in the flats. Fungicides were applied ten days after application of imidacloprid with a CO2 backpack sprayer at 2.0 gal. /1000 ft^2 (i.e., 81.5 liters/1000 m^2) using a single 8003E nozzle. Plots were inoculated with 2 one-inch […] sections of Pythium aphanedermatum-infested fescue leaves three days after application of the fungicides, and the percent infection in the plots was measured for the next 20 days. Results are presented in Table 5 (where A+a number represents days after application of imidacloprid).

[8] = system: Pythium aphandermatum; experiment: Pythium infection of bentgrass 'Crenshaw' turf flats (Example 2); type: in vivo, P. aphanidermatum; settings: imidacloprid alone 481 g/Ha
Description: Bentgrass var. ‘Crenshaw’ was seeded in 10 in.×12 in. (ca. 25 cm×30 cm) peat flats containing steam sterilized 80/20 greens mix. Flats were watered daily with an overhead misting system. Plots were fertilized on 26 days later with 200 ml of a 288 ppm 20-20-20 Regal Green fertilizer solution. Treatments were applied with a CO2 backpack sprayer at 2.0 gal./1000 ft^2 (i.e., 81.5 liters/1000 m^2), with a single 8003E nozzle. lmidacloprid (481 g/Ha) was applied the same day and mancozeb fungicide was applied one week later. Two doses of each fungicide were tested. Plots were inoculated with Pythium aphandermatum 2 days after the fungicides were applied by placing two 1-in (2.5-cm) pieces of infested fescue leaves on each flat. Results are presented in Table 2 (where B+a number represents days after application of the herbicide component).

O=[N+]([O-])NC1=NCCN1Cc1ccc(Cl)nc1 [imidacloprid]
visual vigor ratings [1]: visual vigor ratings indicate a benefit from the imidacloprid treatments | % Dollar Spot ([2]; B + 7): 16.7% | % Dollar Spot ([2]; B + 10): 28.3% | % Dollar Spot ([2]; B + 13): 35.0% | % Dollar Spot ([2]; B + 17): 38.3% | % Dollar Spot ([2]; B + 21): 41.7% | % Dollar Spot ([2]; B + 24): 48.3% | effect of imidacloprid alone on incidence of disease (Dollar Spot) ([2]; imidacloprid alone, in words): no affect on incidence of disease | percent infection (Curvularia) ([3]; first trial, first assessment (13 days after treatment), untreated 22%): 1% | percent infection (Curvularia) ([3]; first trial, second assessment (25 days after treatment), untreated 26%): 8% | percent infection (Curvularia) ([3]; second trial, first assessment, untreated 3%): 0.5% | percent infection (Curvularia) ([3]; second trial, second assessment, untreated 8%): 2% | control of the other diseases on the other turf varieties ([3]; bentgrass, bermudagrass, tall fescue, either trial, in words): did not provide control of the other diseases | control of Curvularia on the Kentucky bluegrass ([3]; both replicates, in words): good control of Curvularia | % turf infected with disease (Curvularia) ([4]; A + 1): 1% | % turf infected with disease (Curvularia) ([4]; A + 8): 1% | % turf infected with disease (Curvularia) ([4]; A + 15): 1% | % turf infected with disease (Curvularia) ([4]; A + 22): 0% | % turf infected with disease (Curvularia) ([4]; A + 29): 0% | % turf infected with disease (Curvularia) ([4]; A + 37): 0% | % turf infected with disease (Curvularia) ([4]; A + 43): 0% | % turf infected with disease (Curvularia) ([4]; A + 51): 16% | % turf infected with disease (Curvularia) ([4]; A + 58): 21% | % turf infected with disease (Curvularia) ([4]; A + 66): 54% | % turf infected with disease (Curvularia) ([4]; A + 72): 30% | % turf infected with disease (Curvularia) ([4]; A + 79): 34% | % turf infected with disease (Curvularia) ([4]; A + 86): 38% | % turf infected with disease (Curvularia) ([4]; A + 94): 16% | development of Curvularia disease incidence compared with the other plots ([4]; after 8 WAT to end of trial, in words): increased at a much slower rate than did the untreated control | % Brown Patch infection ([5]; B + 6): 53.3% | % Brown Patch infection ([5]; B + 8): 73.3% | % Brown Patch infection ([5]; B + 10): 80.0% | effect of imidacloprid alone on the disease (Brown Patch) ([5]; in words): no effect on the disease | Powdery mildew rating ([6]; 2 Weeks after treatment, 0.25 lbs/A (0.28 kg/Ha)): 3.4 | Powdery mildew rating ([6]; 2 Weeks after treatment, 0.4 lbs/A (0.45 kg/Ha)): 3.4 | Powdery mildew rating ([6]; 2 Weeks after treatment, 1.0 lbs/A (1.12 kg/Ha)): 3.4 | disease severity rating (powdery mildew) ([6]; 6 WAT evaluation, treatments of imidacloprid, untreated 4.2, 1 to 9 scale): 3.1 | Powdery mildew rating ([6]; 6 Weeks after treatment, 0.25 lbs/A (0.28 kg/Ha)): 3.2 | Powdery mildew rating ([6]; 6 Weeks after treatment, 0.4 lbs/A (0.45 kg/Ha)): 3.1 | Powdery mildew rating ([6]; 6 Weeks after treatment, 1.0 lbs/A (1.12 kg/Ha)): 3.1 | % Pythium ([7]; A + 8): 17.5% | % Pythium ([7]; A + 11): 32.5% | % Pythium ([7]; A + 15): 40.0% | % Pythium ([7]; A + 18): 38.8% | % Pythium ([7]; A + 22): 25.0% | % Pythium ([7]; A + 28): 12.0% | Pythium in plots treated with imidacloprid alone versus untreated plots ([7]; from 11 days after treatment on, in words): much less Pythium than did the untreated plots | % Pythium ([8]; B + 6): 11.7% | % Pythium ([8]; B + 8): 20.0% | % Pythium ([8]; B + 14): 36.7%
